System: vasopressor response of angiotensin II
Experiment: AII Challenge: antagonism of angiotensin II vasopressor response;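 as to Response Average Change: post-dose Angiotensin II-evoked rise in systolic blood pressure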
Type: in vivo
Settings: for inhibition in vivo at 1 mg/kg / inhibition in vivo at 3 mg/kg / inhibition in vivo at 5 mg/kg: Rattus norvegicus; for inhibition in vivo at 1 mg/kg / inhibition in vivo at 3 mg/kg: iv; for inhibition in vivo at 5 mg/kg: po
Summary of the method: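 Conscious male SHR (16-20 weeks) with aortic and caval cannulae received angiotensin II at 0.05 and 0.1 ug/kg i.v. before and 30-300 min after compound dosing (i.v., i.p. or oral). Blockade is expressed as % of each rat's predose rise in systolic pressure.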

For CCCCc1nc2ccc([C@]3(CC)C[C@@H]4CCCN4O3)cc2c(=O)n1Cc1ccc(-c2ccccc2-c2nnn[nH]2)cc1 (relative stereo) [Example 72, Trans-2-butyl-6-(2-ethylhexahydropyrrolo[1,2-b]isoxazol-2-yl)-3-[[2'-(1H-tetrazol-5-yl)[1,1'-biphenyl]-4-yl]methyl]-4(3H)-quinazolinone], the “Response Average Change” value (1 mg/kg i.v., AII 0.05 mcg/kg IV, 30 min post dose) was 20 mmHg, the “Response Average Change” value (1 mg/kg i.v., AII 0.05 mcg/kg IV, 60 min post dose) was 15 mmHg and the “Response Average Change” value (1 mg/kg i.v., AII 0.05 mcg/kg IV, 90 min post dose) was 17.5 mmHg. For the same compound, the “Response Average Change” value (1 mg/kg i.v., AII 0.05 mcg/kg IV, 120 min post dose) was 22.5 mmHg, the “Response Average Change” value (1 mg/kg i.v., AII 0.05 mcg/kg IV, 180 min post dose) was 36.5 mmHg and the “Response Average Change” value (1 mg/kg i.v., AII 0.05 mcg/kg IV, 240 min post dose) was 30 mmHg. The “Response Average Change” value (1 mg/kg i.v., AII 0.05 mcg/kg IV, 300 min post dose) was 37.5 mmHg, the “Response Average Change” value (1 mg/kg i.v., AII 0.1 mcg/kg IV, 30 min post dose) was 25.5 mmHg and the “Response Average Change” value (1 mg/kg i.v., AII 0.1 mcg/kg IV, 60 min post dose) was 17.5 mmHg. The “Response Average Change” value (1 mg/kg i.v., AII 0.1 mcg/kg IV, 90 min post dose) was 32.5 mmHg, the “Response Average Change” value (1 mg/kg i.v., AII 0.1 mcg/kg IV, 120 min post dose) was 25 mmHg and the “Response Average Change” value (1 mg/kg i.v., AII 0.1 mcg/kg IV, 180 min post dose) was 35 mmHg. For the same compound, the “Response Average Change” value (1 mg/kg i.v., AII 0.1 mcg/kg IV, 240 min post dose) was 40 mmHg, the “Response Average Change” value (1 mg/kg i.v., AII 0.1 mcg/kg IV, 300 min post dose) was 42.5 mmHg and the inhibition in vivo at 1 mg/kg (0.5 h, 1 mg/kg i.v., AII 0.05 mcg/kg IV, 30 min post dose) was 60%. It also gave an inhibition in vivo at 1 mg/kg (0.5 h, 1 mg/kg i.v., AII 0.1 mcg/kg IV, 30 min post dose) of 58%, an inhibition in vivo at 1 mg/kg (1 h, 1 mg/kg i.v., AII 0.05 mcg/kg IV, 60 min post dose) of 70% and an inhibition in vivo at 1 mg/kg (1 h, 1 mg/kg i.v., AII 0.1 mcg/kg IV, 60 min post dose) of 71%. For the same compound, the inhibition in vivo at 1 mg/kg (2 h, 1 mg/kg i.v., AII 0.05 mcg/kg IV, 120 min post dose) was 55%, the inhibition in vivo at 1 mg/kg (2 h, 1 mg/kg i.v., AII 0.1 mcg/kg IV, 120 min post dose) was 58% and the inhibition in vivo at 1 mg/kg (3 h, 1 mg/kg i.v., AII 0.05 mcg/kg IV, 180 min post dose) was 27%. For the same compound, the inhibition in vivo at 1 mg/kg (3 h, 1 mg/kg i.v., AII 0.1 mcg/kg IV, 180 min post dose) was 42%, the inhibition in vivo at 1 mg/kg (4 h, 1 mg/kg i.v., AII 0.05 mcg/kg IV, 240 min post dose) was 40% and the inhibition in vivo at 1 mg/kg (5 h, 1 mg/kg i.v., AII 0.05 mcg/kg IV, 300 min post dose) was 35%. The inhibition in vivo at 1 mg/kg (5 h, 1 mg/kg i.v., AII 0.1 mcg/kg IV, 300 min post dose) was 29%, the inhibition in vivo at 1 mg/kg ([…], 1 mg/kg i.v., AII 0.05 mcg/kg IV, 90 min post dose) was 65% and the inhibition in vivo at 1 mg/kg ([…], 1 mg/kg i.v., AII 0.1 mcg/kg IV, 90 min post dose) was 46%.
For CCCCc1nc2ccc(C3ON4CCCC4C3C(=O)OCC)cc2c(=O)n1Cc1ccc(-c2ccccc2-c2nnn[nH]2)cc1 (stereo not shown) [Example 62, Ethyl 2-[2-butyl-3,4-dihydro-4-oxo-3-[[2'-(1H-tetrazol-5-yl)[1,1'-biphenyl]-4-yl]methyl]-6quinazolinyl]hexahydro-pyrrolo[1,2-b]isoxazole3-carboxylate], the “Response Average Change” value (3 mg/kg I.V., AII 0.05 mcg/kg IV, 30 min post dose) was 14 mmHg, the “Response Average Change” value (3 mg/kg I.V., AII 0.05 mcg/kg IV, 60 min post dose) was 18 mmHg and the “Response Average Change” value (3 mg/kg I.V., AII 0.05 mcg/kg IV, 90 min post dose) was 30 mmHg. For the same compound, the “Response Average Change” value (3 mg/kg I.V., AII 0.05 mcg/kg IV, 120 min post dose) was 25 mmHg, the “Response Average Change” value (3 mg/kg I.V., AII 0.05 mcg/kg IV, 180 min post dose) was 33.5 mmHg and the “Response Average Change” value (3 mg/kg I.V., AII 0.1 mcg/kg IV, 30 min post dose) was 10 mmHg. For the same compound, the “Response Average Change” value (3 mg/kg I.V., AII 0.1 mcg/kg IV, 60 min post dose) was 36 mmHg, the “Response Average Change” value (3 mg/kg I.V., AII 0.1 mcg/kg IV, 90 min post dose) was 40 mmHg and the “Response Average Change” value (3 mg/kg I.V., AII 0.1 mcg/kg IV, 120 min post dose) was 35 mmHg. The “Response Average Change” value (3 mg/kg I.V., AII 0.1 mcg/kg IV, 180 min post dose) was 35 mmHg, the “Response Average Change” value (5 mg/kg P.O., AII 0.05 mcg/kg IV, 30 min post dose) was 22.5 mmHg and the “Response Average Change” value (5 mg/kg P.O., AII 0.05 mcg/kg IV, 60 min post dose) was 37.5 mmHg. The “Response Average Change” value (5 mg/kg P.O., AII 0.05 mcg/kg IV, 120 min post dose) was 40 mmHg, the “Response Average Change” value (5 mg/kg P.O., AII 0.05 mcg/kg IV, 180 min post dose) was 25 mmHg and the “Response Average Change” value (5 mg/kg P.O., AII 0.05 mcg/kg IV, 240 min post dose) was 40 mmHg. For the same compound, the “Response Average Change” value (5 mg/kg P.O., AII 0.1 mcg/kg IV, 30 min post dose) was 43.5 mmHg, the “Response Average Change” value (5 mg/kg P.O., AII 0.1 mcg/kg IV, 60 min post dose) was 43.5 mmHg and the “Response Average Change” value (5 mg/kg P.O., AII 0.1 mcg/kg IV, 90 min post dose) was 45 mmHg. The “Response Average Change” value (5 mg/kg P.O., AII 0.1 mcg/kg IV, 120 min post dose) was 45 mmHg, the “Response Average Change” value (5 mg/kg P.O., AII 0.1 mcg/kg IV, 180 min post dose) was 47.5 mmHg and the “Response Average Change” value (5 mg/kg P.O., AII 0.1 mcg/kg IV, 240 min post dose) was 50 mmHg. It also gave an inhibition in vivo at 3 mg/kg (0.5 h, 3 mg/kg I.V., AII 0.05 mcg/kg IV, 30 min post dose) of 61%, an inhibition in vivo at 3 mg/kg (0.5 h, 3 mg/kg I.V., AII 0.1 mcg/kg IV, 30 min post dose) of 82% and an inhibition in vivo at 3 mg/kg (1 h, 3 mg/kg I.V., AII 0.05 mcg/kg IV, 60 min post dose) of 49%. The inhibition in vivo at 3 mg/kg (1 h, 3 mg/kg I.V., AII 0.1 mcg/kg IV, 60 min post dose) was 36%, the inhibition in vivo at 3 mg/kg (2 h, 3 mg/kg I.V., AII 0.05 mcg/kg IV, 120 min post dose) was 30% and the inhibition in vivo at 3 mg/kg (2 h, 3 mg/kg I.V., AII 0.1 mcg/kg IV, 120 min post dose) was 38%. It also gave an inhibition in vivo at 3 mg/kg (3 h, 3 mg/kg I.V., AII 0.05 mcg/kg IV, 180 min post dose) of 6%, an inhibition in vivo at 3 mg/kg (3 h, 3 mg/kg I.V., AII 0.1 mcg/kg IV, 180 min post dose) of 38% and an inhibition in vivo at 3 mg/kg ([…], 3 mg/kg I.V., AII 0.05 mcg/kg IV, 90 min post dose) of 15%. For the same compound, the inhibition in vivo at 3 mg/kg ([…], 3 mg/kg I.V., AII 0.1 mcg/kg IV, 90 min post dose) was 29%, the inhibition in vivo at 5 mg/kg (0.5 h, 5 mg/kg P.O., AII 0.05 mcg/kg IV, 30 min post dose) was 44% and the inhibition in vivo at 5 mg/kg (0.5 h, 5 mg/kg P.O., AII 0.1 mcg/kg IV, 30 min post dose) was -5%. The inhibition in vivo at 5 mg/kg (1 h, 5 mg/kg P.O., AII 0.05 mcg/kg IV, 60 min post dose) was 6%, the inhibition in vivo at 5 mg/kg (1 h, 5 mg/kg P.O., AII 0.1 mcg/kg IV, 60 min post dose) was -5% and the inhibition in vivo at 5 mg/kg (2 h, 5 mg/kg P.O., AII 0.05 mcg/kg IV, 120 min post dose) was 0%. The inhibition in vivo at 5 mg/kg (2 h, 5 mg/kg P.O., AII 0.1 mcg/kg IV, 120 min post dose) was -8%, the inhibition in vivo at 5 mg/kg (3 h, 5 mg/kg P.O., AII 0.05 mcg/kg IV, 180 min post dose) was 38% and the inhibition in vivo at 5 mg/kg (3 h, 5 mg/kg P.O., AII 0.1 mcg/kg IV, 180 min post dose) was -14%. The inhibition in vivo at 5 mg/kg (4 h, 5 mg/kg P.O., AII 0.05 mcg/kg IV, 240 min post dose) was 0%, the inhibition in vivo at 5 mg/kg (4 h, 5 mg/kg P.O., AII 0.1 mcg/kg IV, 240 min post dose) was -20% and the inhibition in vivo at 5 mg/kg ([…], 5 mg/kg P.O., AII 0.05 mcg/kg IV, 90 min post dose) was 19%. It also gave an inhibition in vivo at 5 mg/kg ([…], 5 mg/kg P.O., AII 0.1 mcg/kg IV, 90 min post dose) of -8%.

From US5358951A, “Angiotensin II receptor blocking 2, 3, 6 substituted quinazolinones” (American Cyanamid Company, priority 1993, dated 1994)
